Measured values as given in patent US20230250083A1, “CRYSTALS” (NIPPON SHINYAKU CO., LTD., priority 2017, published 2023).
Blank lines part the entries; values can stand above or below the molecule they belong to.

What was measured:
Type in all cases: physicochemical
[1] = Solvent-mediated transformation test; settings: for Crystal form after 1 day / Crystal form after 5 days: stirred at room temperature
Procedure: Each solvent was added to the Form-I crystal of the compound A, and the mixture was stirred at room temperature for 24 hours, and then, insolubles was filtered to prepare a saturated solution. Mixed crystals (about 10 mg) in which the Form-I crystal and the Form-II crystal were mixed at 1:1 were added to each solution, and the resultant mixture was stirred at room temperature for 5 days. Formed crystals were collected through filtration, and the crystal form thereof was confirmed.

[2] = Crystallization experiments using various solvents, overall outcome; settings: operation procedures 1 to 4, Tables 1 to 3
Procedure: Each of various solvents was added to the Form-I crystal of the present invention (several mg), crystals of the compound A were precipitated according to the following operation procedures, and the crystal form of the precipitated crystals was confirmed. The results of the operation procedures 1 to 3 are shown in Table 1 and Table 2, and the results of the operation procedure 4 are shown in Table 3. The symbol “-” in Table 1 to Table 3 means that no precipitate was obtained.

[3] = Stability test (sealed glass bottle, 90° C.)
Procedure: The Form-II crystal of the compound A was put in a glass bottle, and the glass bottle was tightly sealed and stored at 90° C. The sample was taken out after 1 day, 3 days, and 7 days, and was dissolved in methanol at a concentration of 1 mg/mL. Each solution was subjected to measurement of analogs by HPLC. As for the crystals after 7 days, the crystal form was confirmed.

[4] = acetone:water 20:80 saturated with Form-I
[5] = acetonitrile saturated with Form-I
[6] = 90° C., after 1 day, tightly sealed glass bottle
[7] = 90° C., after 3 days, tightly sealed glass bottle
[8] = 90° C., after 7 days, tightly sealed glass bottle

thermodynamic stability in solvent ([1]; acetonitrile, ethyl acetate, water-containing acetone at room temperature): thermodynamically stable
crystallization from various solvents (which form crystallizes) [2]: preferentially crystallized
SMILES: C[C@H](Nc1cc(-c2cnn(C)c2)cc(Nc2cnccn2)n1)c1ccc(F)cc1.O=C(O)/C=C\C(=O)O [Form-I crystal of the present invention]

Crystal form after 1 day [1, 4]: Form-I
Crystal form after 5 days [1, 4]: Form-I
Crystal form after 1 day [1, 5]: Form-I
Crystal form after 5 days [1, 5]: Form-I
crystal form transformation of mixed crystals ([1]; after 5 days, in acetonitrile, ethyl acetate, and water-containing acetone at room temperature): all transformed to the Form-I crystal
Crystal form after 5 days ([1]; ethyl acetate saturated with Form-I): Form-I
SMILES: C[C@H](Nc1cc(-c2cnn(C)c2)cc(Nc2cnccn2)n1)c1ccc(F)cc1.O=C(O)/C=C\C(=O)O [Form-I + Form-II (1:1)]

Appearance [3, 6]: no change
HPLC area (%) [3, 6]: 99.7%
Appearance [3, 7]: no change
HPLC area (%) [3, 7]: 99.8%
Appearance [3, 8]: no change
Crystal form after 7 days [3, 8]: Form-II
HPLC area (%) [3, 8]: 99.6%
Appearance ([3]; Before storage): pale yellow crystal
HPLC area (%) ([3]; Before storage): 99.7%
SMILES: C[C@H](Nc1cc(-c2cnn(C)c2)cc(Nc2cnccn2)n1)c1ccc(F)cc1.O=C(O)/C=C\C(=O)O [Form-II]
crystallization from various solvents (which form crystallizes) ([2]; listed as Form-II crystal of the present invention): crystallized only in water-containing systems
